Source: patent EP0486809A2, “Use of suramin against TNF-related diseases” (priority 1990, dated 1992)

Tests used:
[1] = molecular target: T1, human TNFa (Homo sapiens, UniProt P01375); experiment: Inhibition by suramin of the cytotoxic activity of TNFa on untreated mouse LM cells (MTT); type: cell-based; details: measured after 2 days, Figure 6
Procedure: The experiments depicted in Figure 6 were similar to the experiments of Figure 5, except that actinomycin D was omitted from the incubation mixture. In this case the cytotoxic activity of human TNFa was measured after 2 days. […] The degree of inhibition was dependent on the activity of human TNFa employed, i.e. doses of human TNFa exerting high cytotoxic activity were less inhibitable than those exerting lower cytotoxic activity.
3) Inhibition by suramin of the cytotoxic activity of TNF a on untreated mouse LM cells.
On day O logarithmically growing mouse LM cells (Rubin, B.Y. et al. J. Exp. Med. 162 : 1099 (1985)) are trypsinized, centrifuged and resuspended at a final concentration of 5 x 10^4 cells/ml of Eagle's minimun essential medium supplemented with 5% FCS and 1% glutamine (complete MEM). […]
The plates are further incubated for 4 hours at 37 °C. Then, supernatants are discarded, 200 µl of dimethylsulfoxide (DMSO, Farmitalia Carlo Erba) are added to each well and the extent of color development is read on a plate ELISA reader at 570 nm. OD values obtained for each TNF a concentration and each TNFa-suramin mixture are expressed as percent (%) of those obtained for the controll wells containing only complete MEM and complete MEM plus each suramin dilution, respectively.

[2] = molecular target: T1, human TNFa; experiment: Inhibition by suramin of the cytotoxic activity of TNFa on actinomycin D-treated LM cells (MTT); type: cell-based; details: mouse LM cells treated with actinomycin D, measured the day after; Figure 5
Procedure: In the experiment depicted in Figure 5 different concentrations of human TNFa (Esquire) were incubated, in the absence or presence of different doses of suramin, with mouse LM cells treated with actinomycin D. Treatment with actinomycin D is known to render LM cells more sensitive to the cytotoxic activity of TNFa (Ruff, M.R. and Gifford, G.E., J. lmmunol. 125: 1671 (1980)). The cytotoxic activity of human TNFa was measured the day after.
Inhibition by suramin of the cytotoxic activity of TNF a on actinomycin D - treated LM cells.
The experimental design is similar to that for the assay on untreated LM cells.
The differences are as follows. • 1) 100 µl of a cell-suspension containing 3 x 10^5 cells/ml are added to each well of microtiter plates. • 2) Before setting up the TNFa-cytotoxicity assay, the cells are pretreated for 4 hours at 37 °C with complete MEM (100 µl/well) containing 2 µg/ml actinomycin D (Fluka). • 3) The cytotoxic activity of human TNF a is measured after an incubation period of 24 hours at 37 ° C.

[3] = molecular target: T1, human TNFa; experiment: Inhibition by suramin of the binding of iodinated human TNFa to K562 cells; design: purchased New England Nuclear (NEN), Wilmington, DE; details: for IC50: Figure 1, read-out: Inhibitory concentrations 50 (IC50)
Procedure: In the experiment depicted in Figure 1 suramin was mixed, at the indicated doses, with 2.5 x 10^-11M, 10^-10M, or 4 x 10^-10M iodinated human TNFa - (New England Nuclear, NEN, Wilmington, DE). The mixtures were then added immediately to K562 cells. The residual binding of TNF a was measured and compared to the binding to K562 cells in the absence or presence of a 100-fold higher dose of "cold" unlabeled human TNFa (Esquire Chemie AG, Zuerich, Switzerland). […] Higher doses of suramin are required to inhibit the binding of higher doses of iodinated TNFa. […]
1) Inhibition by suramin of the binding of iodinated human TNF a to K562 cells.
lodinated human TNFa (NEN, specific activity = 30 - 70 µCi/µg protein) is diluted so to have concentrations of 1.6 x 10-^9 M, 4 x 10^-10M and 10^-10M in RPMI 1640 medium (Flow, Opera, Italy) supplemented with 2% foetal calf serum (FCS, PBI, Milan, Italy) and 14 mM Hepes (Flow). This medium will hereon be referred to as binding medium (BM). "Cold" unlabeled human TNF a (Esquire) is diluted in BM so to have concentrations of 1.6 x 10^-7M, 4 x 10-^8 M and 10^-8M. Suramin (Bayer, Leverkusen, FRG) is dissolved in BM so to have a concentration of 4 mM. Starting from this solution a series of dilutions are set up in BM.
K562 cells (human chronic myelogenous leukemia, ATCC CCL243) are adjusted to a concentration of 2 x 10^6/ml in BM. 100 µl of the cell suspension are then incubated with 50 µl of each iodinated TNFa concentration and with 50 µl BM or 50 µl of a 100 fold higher concentration of "cold" TNF a or 50 µl of each suramin dilution. The mixtures are incubated for 4 hours at […]. Thereafter the cells are centrifuged through a phthalate-dibutyl phthalate oil mixture (1:1,5 vol/vol, Fluka AG, Buchs, Switzerland). Cell-associated radioactivity is determined in a gamma-counter. Data thus obtained are processed by means of an equilibrium binding data analysis program (EBDA, Elsevir Science Publishers, Amsterdam, Netherlands). […]

[4] = molecular target: T1, human TNFa; experiment: Inhibition by suramin of the binding of iodinated human TNFa to LM cells; design: purchased New England Nuclear (NEN), Wilmington, DE; details: binding of 3 x 10^-10M human TNFa to mouse LM cells; Figure 2
Procedure: The mixtures were then added to mouse LM cells. The residual binding of TNFa was measured and compared to the binding to LM cells in the absence or presence of a 100-fold higher dose of "cold" unlabeled human TNFa. […] For the binding assay, 24-well plates (Costar, Vis- mara Associate, Trezzano sul Naviglio, Italy) are used, that have been seeded the day before with mouse LM cells (Rubin, B.Y. et al. J. Exp. Med. 162: 1099 (1985)), 200.000 cells/well. The medium is discarded and replaced with 100 µl BM supplemented with 0.04% Na N3, 50 µl iodinated human TNF a and 50 µl BM or 50 µl cold TNF a or 50 µl of each suramin dilution. After 4 hours at 4°C cells are washed 4 x with BM, solubilized with 2% SDS and cell-associated radioactivity is determined. Data are processed as described before.

T1 sequence (P01375 77-233 limits assumed): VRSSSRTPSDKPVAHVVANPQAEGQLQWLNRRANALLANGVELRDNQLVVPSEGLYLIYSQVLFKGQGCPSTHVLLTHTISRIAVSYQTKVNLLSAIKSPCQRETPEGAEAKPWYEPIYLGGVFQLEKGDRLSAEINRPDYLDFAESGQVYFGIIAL

## Cc1ccc(C(=O)Nc2ccc(S(=O)(=O)O)c3cc(S(=O)(=O)O)cc(S(=O)(=O)O)c23)cc1NC(=O)c1cccc(NC(=O)Nc2cccc(C(=O)Nc3cc(C(=O)Nc4ccc(S(=O)(=O)O)c5cc(S(=O)(=O)O)cc(S(=O)(=O)O)c45)ccc3C)c2)c1 [suramin, 8,8' - (carbonylbis(imino-3,1-phenylenecarbonylimino (4-methyl-3,1-phenylene)carbonylimino)) bis-1,3 ,5-naphthalenetrisulfonic acid]
[1]
  inhibition of the cytotoxic activity of human TNFa: inhibited, in a dose- dependent manner
[2]
  inhibition of the cytotoxic activity of human TNFa: inhibited, in a dose- dependent manner
[3]; binding of 2.5 x 10-"M human TNFa to human K562 cells
  IC50: 78 µM
[3]; binding of 4 x 10-'°M human TNFa to human K562 cells
  IC50: 180 µM
[3]; binding of 10^-10M human TNFa to human K562 cells
  IC50: 126 µM
[3]; sequential addition of suramin and 10^-10M TNFa, K562 cells washed in between, Figure 4
  inhibition of the binding of TNFa to K562: no inhibition
[4]
  IC50: 175 µM
